Data on 1 compound can be found in PMC8799717, “Pharmacological targeting PIKfyve and tubulin as an effective treatment strategy for double-hit lymphoma” (Cell Death Discovery, 2022).

The structures appear in SMILES notation.

Holding throughout (test): biochemical
Common to all, as to set-up: KINOMEscan active-site-directed competition binding panel, 468 kinases, percent of DMSO control at 1 uM
Common to all, as to details: KINOMEscan binding, percent of DMSO control; read-out: Ctrl%

Assay [1] concerns the target CSNK1G3 (Homo sapiens, UniProt Q9Y6M4).
Assay [2] has as its target T1, IKK-alpha (Homo sapiens, UniProt O15111).
T1 construct: gene CHUK

The target in assay [3] is T2, MRCKB (Homo sapiens, UniProt Q9Y5S2).
T2 construct: gene CDC42BPB

Assay [4] deals with T3, CDK11 (Homo sapiens, UniProt Q9BWU1).
T3 construct: gene CDK19

Assay [5] has as its target LYN (Homo sapiens, UniProt P07948).
In assay [6] the target is CDKL3 (Homo sapiens, UniProt Q8IVW4).
Assay [7] deals with EPHA7 (Homo sapiens, UniProt Q15375).
Assay [8] addresses TESK1 (Homo sapiens, UniProt Q15569).
Assay [9] addresses KIT(L576P) (Homo sapiens, UniProt P10721, L576P).
Assay [10] concerns the target PRKCQ (Homo sapiens, UniProt Q04759).
Assay [11] concerns the target T4, RPS6KA5(Kin.Dom.2-C-terminal) (Homo sapiens, UniProt O75582).
T4 construct: Kin.Dom.2-C-terminal

Assay [12] addresses NEK7 (Homo sapiens, UniProt Q8TDX7).
Assay [13] has as its target TGFBR2 (Homo sapiens, UniProt P37173).
Assay [14] concerns the target FLT1 (Homo sapiens, UniProt P17948).
In assay [15] the target is FRK (Homo sapiens, UniProt P42685).
Assay [16] concerns the target PRKD3 (Homo sapiens, UniProt O94806).
The target in assay [17] is T5, ERK1 (Homo sapiens, UniProt P27361).
T5 construct: gene MAPK3

Assay [18] concerns the target T6, LKB1 (Homo sapiens, UniProt Q15831).
T6 construct: gene STK11

Assay [19] concerns the target T7, p38-delta (Homo sapiens, UniProt O15264).
T7 construct: gene MAPK13

Assay [20] has as its target T8, TAK1 (Homo sapiens, UniProt O43318).
T8 construct: gene MAP3K7

Assay [21] deals with ULK3 (Homo sapiens, UniProt Q6PHR2).
The target in assay [22] is AKT1 (Homo sapiens, UniProt P31749).
The target in assay [23] is MUSK (Homo sapiens, UniProt O15146).
For assay [24], the target named is T9, RPS6KA4(Kin.Dom.2-C-terminal) (Homo sapiens, UniProt O75676).
T9 construct: Kin.Dom.2-C-terminal

Chain of EPHA7 (Q15375 whole entry): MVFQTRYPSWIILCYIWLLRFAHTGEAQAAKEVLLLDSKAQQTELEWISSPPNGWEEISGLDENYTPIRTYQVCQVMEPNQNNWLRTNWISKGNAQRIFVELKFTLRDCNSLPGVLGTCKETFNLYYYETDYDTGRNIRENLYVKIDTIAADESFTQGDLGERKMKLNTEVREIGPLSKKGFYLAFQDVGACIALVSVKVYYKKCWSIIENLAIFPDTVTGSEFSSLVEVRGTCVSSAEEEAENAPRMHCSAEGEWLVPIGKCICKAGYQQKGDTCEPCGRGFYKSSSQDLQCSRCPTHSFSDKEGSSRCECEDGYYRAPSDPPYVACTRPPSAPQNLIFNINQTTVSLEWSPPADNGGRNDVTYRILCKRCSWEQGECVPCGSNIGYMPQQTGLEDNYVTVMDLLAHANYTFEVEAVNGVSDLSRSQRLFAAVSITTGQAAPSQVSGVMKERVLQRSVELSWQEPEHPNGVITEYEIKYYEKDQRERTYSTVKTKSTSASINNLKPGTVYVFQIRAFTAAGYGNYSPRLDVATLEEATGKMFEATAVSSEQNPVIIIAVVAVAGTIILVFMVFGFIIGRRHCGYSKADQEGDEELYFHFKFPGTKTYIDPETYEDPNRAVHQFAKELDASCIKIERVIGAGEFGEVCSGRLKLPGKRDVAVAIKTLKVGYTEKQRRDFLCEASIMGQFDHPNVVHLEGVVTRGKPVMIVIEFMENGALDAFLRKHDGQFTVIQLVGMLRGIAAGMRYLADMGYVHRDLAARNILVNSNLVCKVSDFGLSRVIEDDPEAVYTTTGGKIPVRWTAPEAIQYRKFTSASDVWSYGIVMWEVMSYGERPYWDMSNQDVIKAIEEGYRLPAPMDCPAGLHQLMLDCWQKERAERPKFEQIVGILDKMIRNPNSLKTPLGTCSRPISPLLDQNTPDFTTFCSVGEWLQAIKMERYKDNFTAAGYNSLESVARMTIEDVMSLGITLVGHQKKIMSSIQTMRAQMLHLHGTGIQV
T7 sequence (O15264 whole entry): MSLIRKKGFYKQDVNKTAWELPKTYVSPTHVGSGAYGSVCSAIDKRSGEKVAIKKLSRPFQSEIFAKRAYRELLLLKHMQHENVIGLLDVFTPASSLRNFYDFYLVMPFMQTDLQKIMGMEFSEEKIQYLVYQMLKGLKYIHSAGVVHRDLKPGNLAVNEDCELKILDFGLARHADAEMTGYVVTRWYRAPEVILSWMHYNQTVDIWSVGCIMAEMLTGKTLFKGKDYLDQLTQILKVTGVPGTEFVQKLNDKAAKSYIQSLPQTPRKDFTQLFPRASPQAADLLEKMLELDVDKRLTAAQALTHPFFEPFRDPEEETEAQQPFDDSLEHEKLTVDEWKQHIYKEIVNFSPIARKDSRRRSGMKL
T8 sequence (O43318 whole entry): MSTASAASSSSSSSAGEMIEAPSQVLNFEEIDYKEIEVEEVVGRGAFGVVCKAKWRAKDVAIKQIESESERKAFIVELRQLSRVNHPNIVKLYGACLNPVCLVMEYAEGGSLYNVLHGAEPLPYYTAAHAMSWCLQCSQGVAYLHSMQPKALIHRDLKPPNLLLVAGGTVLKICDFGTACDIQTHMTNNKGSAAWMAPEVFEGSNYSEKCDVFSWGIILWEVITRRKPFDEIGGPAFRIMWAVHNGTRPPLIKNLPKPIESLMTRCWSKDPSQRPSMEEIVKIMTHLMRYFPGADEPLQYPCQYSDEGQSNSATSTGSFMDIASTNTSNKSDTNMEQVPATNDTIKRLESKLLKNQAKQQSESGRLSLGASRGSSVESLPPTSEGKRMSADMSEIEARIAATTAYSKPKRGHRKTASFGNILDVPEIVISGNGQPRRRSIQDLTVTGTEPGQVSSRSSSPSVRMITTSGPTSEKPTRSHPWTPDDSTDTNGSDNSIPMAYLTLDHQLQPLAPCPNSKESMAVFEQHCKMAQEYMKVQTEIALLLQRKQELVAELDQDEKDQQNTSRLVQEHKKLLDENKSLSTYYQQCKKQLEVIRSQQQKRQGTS
Chain of PRKD3 (O94806 whole entry): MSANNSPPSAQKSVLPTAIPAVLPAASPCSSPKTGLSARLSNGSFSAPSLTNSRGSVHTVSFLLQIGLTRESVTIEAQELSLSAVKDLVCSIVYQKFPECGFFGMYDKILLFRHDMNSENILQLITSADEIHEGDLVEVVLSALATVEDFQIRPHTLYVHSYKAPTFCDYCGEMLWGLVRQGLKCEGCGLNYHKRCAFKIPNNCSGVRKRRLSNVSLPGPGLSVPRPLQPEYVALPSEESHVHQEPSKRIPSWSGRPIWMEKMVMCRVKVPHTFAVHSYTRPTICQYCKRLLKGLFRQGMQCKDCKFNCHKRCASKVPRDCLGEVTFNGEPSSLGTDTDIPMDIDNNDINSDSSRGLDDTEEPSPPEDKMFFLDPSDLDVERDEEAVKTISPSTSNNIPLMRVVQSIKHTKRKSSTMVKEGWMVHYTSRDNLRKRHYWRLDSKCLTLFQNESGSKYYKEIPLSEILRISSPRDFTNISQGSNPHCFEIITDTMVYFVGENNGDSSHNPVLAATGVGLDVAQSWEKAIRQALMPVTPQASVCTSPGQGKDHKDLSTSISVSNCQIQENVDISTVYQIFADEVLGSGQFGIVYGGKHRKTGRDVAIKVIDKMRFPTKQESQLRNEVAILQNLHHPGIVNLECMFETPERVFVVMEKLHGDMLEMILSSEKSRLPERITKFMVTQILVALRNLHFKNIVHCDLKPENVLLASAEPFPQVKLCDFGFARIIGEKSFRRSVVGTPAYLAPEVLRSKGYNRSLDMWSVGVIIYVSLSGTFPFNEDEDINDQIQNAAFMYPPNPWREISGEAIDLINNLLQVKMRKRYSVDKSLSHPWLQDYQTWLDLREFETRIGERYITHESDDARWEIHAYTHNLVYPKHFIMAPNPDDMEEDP
Chain of ULK3 (Q6PHR2 whole entry): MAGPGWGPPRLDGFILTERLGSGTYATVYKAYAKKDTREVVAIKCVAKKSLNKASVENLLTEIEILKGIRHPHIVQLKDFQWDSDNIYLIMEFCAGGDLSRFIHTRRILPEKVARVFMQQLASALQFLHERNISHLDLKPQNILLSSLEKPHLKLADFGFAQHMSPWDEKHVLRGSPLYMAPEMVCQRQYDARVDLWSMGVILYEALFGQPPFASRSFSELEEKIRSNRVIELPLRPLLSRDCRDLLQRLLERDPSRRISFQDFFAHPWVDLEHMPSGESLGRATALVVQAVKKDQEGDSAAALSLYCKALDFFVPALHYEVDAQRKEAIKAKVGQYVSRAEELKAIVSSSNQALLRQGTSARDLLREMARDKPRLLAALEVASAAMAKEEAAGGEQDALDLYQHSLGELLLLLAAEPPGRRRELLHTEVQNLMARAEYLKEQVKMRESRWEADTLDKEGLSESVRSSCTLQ
Chain of FLT1 (P17948 whole entry): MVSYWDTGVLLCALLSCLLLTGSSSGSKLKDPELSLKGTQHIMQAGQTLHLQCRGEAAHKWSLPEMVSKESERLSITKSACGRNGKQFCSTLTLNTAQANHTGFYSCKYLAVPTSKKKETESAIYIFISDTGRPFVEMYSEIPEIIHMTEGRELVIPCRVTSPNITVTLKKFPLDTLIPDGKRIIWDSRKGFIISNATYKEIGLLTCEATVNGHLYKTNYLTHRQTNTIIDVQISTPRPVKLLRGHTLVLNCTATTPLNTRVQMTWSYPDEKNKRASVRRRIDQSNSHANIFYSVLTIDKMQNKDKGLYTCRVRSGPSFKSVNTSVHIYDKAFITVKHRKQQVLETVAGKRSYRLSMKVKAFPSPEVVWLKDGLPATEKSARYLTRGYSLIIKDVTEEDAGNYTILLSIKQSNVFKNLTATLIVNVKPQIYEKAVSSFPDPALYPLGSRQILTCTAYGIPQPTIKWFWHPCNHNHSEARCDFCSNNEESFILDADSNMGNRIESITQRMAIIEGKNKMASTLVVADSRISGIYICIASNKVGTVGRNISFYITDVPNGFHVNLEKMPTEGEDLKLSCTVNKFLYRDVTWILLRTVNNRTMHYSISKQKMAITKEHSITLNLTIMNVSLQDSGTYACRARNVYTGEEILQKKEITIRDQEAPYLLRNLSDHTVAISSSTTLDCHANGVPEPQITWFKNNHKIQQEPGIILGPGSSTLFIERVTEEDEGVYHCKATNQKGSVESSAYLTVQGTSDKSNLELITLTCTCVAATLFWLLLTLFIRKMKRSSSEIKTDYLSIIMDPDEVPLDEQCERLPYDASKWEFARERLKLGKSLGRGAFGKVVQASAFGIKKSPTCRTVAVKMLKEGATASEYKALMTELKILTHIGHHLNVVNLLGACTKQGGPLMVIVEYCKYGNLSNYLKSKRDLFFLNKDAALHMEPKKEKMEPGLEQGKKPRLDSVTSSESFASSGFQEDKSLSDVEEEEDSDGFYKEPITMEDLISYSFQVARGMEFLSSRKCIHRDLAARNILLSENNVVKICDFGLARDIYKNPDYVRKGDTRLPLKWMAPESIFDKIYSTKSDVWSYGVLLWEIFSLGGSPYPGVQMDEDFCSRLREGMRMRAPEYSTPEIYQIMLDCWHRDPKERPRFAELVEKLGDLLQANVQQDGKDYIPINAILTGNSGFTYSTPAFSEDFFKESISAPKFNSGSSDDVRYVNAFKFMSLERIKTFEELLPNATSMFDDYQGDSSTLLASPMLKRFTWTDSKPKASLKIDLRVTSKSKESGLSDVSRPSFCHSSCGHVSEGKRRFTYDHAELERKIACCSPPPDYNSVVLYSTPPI
Chain of NEK7 (Q8TDX7 whole entry): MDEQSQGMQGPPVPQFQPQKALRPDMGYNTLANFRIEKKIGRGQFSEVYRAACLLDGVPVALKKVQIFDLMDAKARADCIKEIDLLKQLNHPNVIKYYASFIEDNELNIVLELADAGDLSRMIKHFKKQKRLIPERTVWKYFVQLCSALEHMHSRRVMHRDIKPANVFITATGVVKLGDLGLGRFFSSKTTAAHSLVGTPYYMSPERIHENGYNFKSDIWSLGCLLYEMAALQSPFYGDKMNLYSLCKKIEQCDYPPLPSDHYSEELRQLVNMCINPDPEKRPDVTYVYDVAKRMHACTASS

As to `Cc1ccc(NC(=O)c2cccc(C(F)(F)F)c2)cc1Nc1cc(-c2cccnc2)nc2[nH]ccc12` [HZX-02-059], the remaining binding at 1 µM in assay [1] came to 100%; in [2], 100%; in [3] it was 100%; in assay [4] it was 79%; in assay [5], 17%; in assay [6], 84%. Moreover, the remaining binding at 1 µM in assay [7] was 66%; in [8], 77%; in [9], 0.3%; in assay [10] it was 88%; in assay [11] it was 99%; in [12], 73%. The remaining binding at 1 µM turned out to be 90% in [13]; 96% in [14]; 4.7% in assay [15]; 100% in assay [16]; 99% in assay [17]; 72% in [18]. The remaining binding at 1 µM is 87% in [19]; 73% in assay [20]; 91% in [21]; 99% in assay [22]; 100% in assay [23]; 97% in assay [24].
